Structure (SMILES)	melting point [°C]
COc1ccc(COc2cccc(C=C(C=O)C(C=O)=Cc3cccc(OCc4ccc(OC)cc4)c3)c2)cc1	117 to 119
CC1(C)NC(=O)N(c2ccc(C#N)c(C(F)(F)F)c2)C1=N	228
CC(=O)OCCCC(C(=O)C=Cc1ccc(O)c(OC(F)(F)F)c1)C(=O)C=Cc1ccc(O)c(OC(F)(F)F)c1 (stereo not drawn)	130 to 131
COc1cc2c(cc1OC)C(=O)C(Cc1ccncc1)C2 (stereo not drawn)	192 to 193
CC(C)(C)OC(=O)Nc1ccc(F)cc1C(F)(F)F	61 to 62
N#Cc1cccc(-c2ccc(OCC(CN3C(=O)CCC3=O)N(O)C=O)cc2)c1 (stereo not drawn)	128
COc1cc(OC)c2c(c1)S(=O)(=O)NC2=O	258
Cc1ccc2cccc(OCc3c(Cl)ccc(S(=O)(=O)N4CCC[C@H]4C(=O)N(C)CCNC(=O)OC(C)(C)C)c3Cl)c2n1	88
COC(=O)c1cc([N+](=O)[O-])cc(-c2ccc(NC(=O)OC(C)(C)C)cc2)c1C	131 to 132
COc1ccc(N(c2nc(N)nc(NC3CC3)n2)C2CC2)cc1F	91 to 92
O=[N+]([O-])c1ccc(Oc2ccc(C(F)(F)F)cc2Cl)cc1[N+](=O)[O-]	80 to 81
CNC1=CC(=O)N(C)C1	132 to 134
O=c1[nH]cccc1CCCCCCCCCCCCc1ccc[nH]c1=O	210
COc1cc(OC)cc(N2CCN(C(=O)Nc3nc(C)c(C)nc3OC)CC2)c1	136 to 137
CCCCCCCCCCCCSCCCN(CCO)CCO	53 to 54
Cc1ccc(S(=O)(=O)OCC2CCc3ccc4[nH]c(=O)[nH]c4c3O2)cc1 (stereo not drawn)	205

Next, values leading:

melting point [°C]	Structure (SMILES)
221 to 223	O=C(O)[C@@H]1CCCN1C(=O)c1cc2cc3c(cc2c2cc(OCc4ccccc4)ccc12)OCO3
215 to 216	O=C(CCl)Nc1nc(Cl)c(-c2ccccc2)s1
145 to 148	Fc1ccc(-c2onc3c(CBr)cccc23)cc1
98.5 to 102	COc1ccc(-c2nc(-c3cccn3CC(=O)OCCC(C)C)sc2-c2ccc(OC)cc2)cc1
248	CC(=O)Nc1ccc(CCNc2nc(C)nc3sc(C)cc23)cc1
194 to 196	Cc1cc(Cn2c(-c3ccccc3)nc(Cl)c2CC#N)ccc1O
75 to 78	CC(C)N(CCC(CCN(C)C)(C(N)=O)c1ccccc1)C(C)C (stereo not drawn)
245 to 246	Cc1cc(C#N)cnc1Oc1c(Cl)cc(NC(=O)NC(=O)c2c(Cl)cccc2Cl)cc1Cl
166	COC(=O)C1=C(C)NN=C(C(=O)OC(C)C)C1c1ccccc1Cl (stereo not drawn)
186 to 188	CCCc1nnc2c(NC3CCCC3)nc3ccccc3n12
141 to 142	CCNC(=O)C(C)Oc1ccc(N(C)c2nc3cc(Cl)ccc3o2)cc1 (stereo not drawn)
147 to 150	CC(C)NC(=O)c1ccc(-c2ccc3oc(C4CCN(C(=O)OC(C)C)CC4)nc3c2)cc1F
138	CCOC(=O)c1cnn(-c2nc(-c3cccc(C(F)(F)F)c3)cs2)c1C
98.4 to 101	O=[N+]([O-])c1ccc(S(=O)(=O)N2CC3CN(Cc4ccccc4)CC(C2)O3)cc1
203 to 206	O=C(O)CCc1cc2cc(Cl)ccc2n1S(=O)(=O)c1cccc(C(F)(F)F)c1
169	O=Cc1ccc(-c2cn3ccnc3s2)cc1
204 to 205	CS(=O)(=O)c1ccc(-c2oc(-c3ccccc3)nc2-c2ccc(F)cc2)cc1
90 to 95	COc1ccc(S(=O)(=O)C2(C(=O)NO)CCN(Cc3ccccc3)CC2)cc1
153 to 155	COc1ccc2c(c1)c(CC(=O)ON(C(N)=O)C(C)c1cc3ccccc3s1)c(C)n2C(=O)c1ccc(Cl)cc1 (stereo not drawn)
117 to 119	O=C(Nc1ccc(OCCN2CCOCC2)c2ccccc12)c1cc(F)cc(OC2CCCC2)c1
194 to 197	Cc1cc2c(c(C)n1)c(=O)oc1ccccc12
134	CCC(=O)C1=C(O)CC(c2ccc3sccc3c2)CC1=O (stereo not drawn)

Source: a melting point compilation (Tetko et al.; mined from patent text by program, amines drawn as free bases though some values may be those of a salt)
